In article PMC7615676, “Short-course combination treatment for experimental chronic Chagas disease” (Science translational medicine, 2023):
Values after ≈ are worked out from the molar mass of the structure shown. Like-named read-outs stand apart in the source and are kept apart here. One block for each compound: values may come before it.

How the values were obtained:
[1] = design: method as in PMID 21073628, PMID 20932171; settings: patients; cited from earlier work
[2] = molecular target: T. cruzi complex III (epimastigote lysates) (Trypanosoma cruzi, UniProt Q9T479); experiment: T. cruzi complex III assay; assay type: biochemical; settings: decylubiquinol substrate
Procedure: Complex III activity within these lysates was monitored in the presence and absence of compound 3, compound 5 and related analogues from this series, using decylubiquinol as a pseudo-substrate ([43]).
Measurement of complex III activity and inhibition were performed as described previously ([43]).

[3] = system: T. cruzi epimastigotes bearing mutations in cytochrome b; experiment: epimastigote drug sensitivity assay, cytochrome b mutant / resistant lines; assay type: cell-based, Trypanosoma cruzi; settings: for EC50: Trypanosoma cruzi
Procedure: (§1) T. cruzi epimastigotes from the Silvio strain (MHOM/BR/78/Silvio; clone X10/7A) were grown at 28°C in RTH/FBS medium ([80]).
(§2) T. cruzi epimastigote assays carried out as described previously ([43]).
Compound-resistant cell lines were generated by subculturing clones of wild-type T. cruzi epimastigotes in the continuous presence of compound 3 or compound 5. Starting at sublethal concentrations, drug concentrations in 3 independent cultures were increased in a stepwise manner, usually by 2-fold. When parasites were able to survive and grow in compound concentrations equivalent to >30-fold their established EC50 value, they were cloned by limiting dilution in the presence of compound. Three independent clones were selected from each compound for further study.

[4] = system: wild-type T. cruzi epimastigotes; experiment: epimastigote drug sensitivity assay, wild-type; assay type: cell-based; settings: Trypanosoma cruzi
Procedure: as §1, §2

[5] = system: intracellular T. cruzi amastigotes, strain Silvio X10/7 A1; experiment: intracellular T. cruzi amastigote potency assay; assay type: cell-based; settings: Trypanosoma cruzi
[6] = kinetic aqueous solubility (CLND); assay type: physicochemical; settings: phosphate buffered saline, aqueous buffer, kinetic from dmso stock, pH 7.4
Procedure: The eluent is quantified by suitably calibrated flow injection CLND. This assay has a dynamic range between the lower detection limit of 1 and 500 μM, governed by the protocol’s 1:20 dilution into pH 7.4 phosphate buffer solution from nominal 10 mM DMSO stock.

[7] = molecular target: T. cruzi CYP51 (Trypanosoma cruzi, UniProt Q7Z1V1); experiment: T. cruzi CYP51 biochemical assay
[8] = system: Vero host cells; experiment: cytotoxicity against host cells in intracellular amastigote assay; assay type: cell-based; settings: host cell cytotoxicity; for EC50: Chlorocebus sabaeus, Vero
[9] = system: T. cruzi culture derived trypomastigotes, strain Silvio X10/7 A1; experiment: trypomastigote assay; assay type: cell-based; settings: Trypanosoma cruzi
Procedure: Trypomastigote assays using strain Silvio X10/7 subclone A1 were carried out as described in ([19]). Parasite culture and potency determinations for panel of strains were performed as in ([19]). Strains used were M6241 clone 6 (DTU III), ERA clone 2 (DTU IV), PAH179 clone 5 (DTU V) and CL Brener-Luciferase (PpyRE9h-expressing T. cruzi, same strain that is used in animal model studies ([67])) (DTU VI). […] For Y strain compound exposure time was 3 days. Rate-of-kill assays were carried out as described in ([39]).

[10] = chromatographic LogD assay; assay type: physicochemical; settings: reversed phase HPLC column (Gemini NX C18), pH 7.4; read-out: Chrom logD pH 7.4
Procedure: The chromatographic hydrophobicity index (CHI) values were measured using reversed phase HPLC column (50 mm × 2 mm, 3 μm Gemini NX C18, Phenomenex, U.K.) with fast acetonitrile gradient at starting mobile phase at pH 7.4. CHI values were derived directly from the gradient retention times by using a calibration line obtained for standard compounds. The CHI value approximates to the volume % organic concentration when the compound elutes. CHI was linearly transformed into ChromlogD by least-squares fitting of experimental CHI values to calculated log P (ClogP) values for over 20K research compounds using the following formula: ChromlogD = 0.0857CHI − 2.00. The average error of the assay is ±3 CHI units or ± 0.25 ChromlogD.

[11] = FaSSIF solubility assay; assay type: physicochemical; settings: pH 6.5, 4 h
Procedure: Solubility of test compounds in fasted simulated intestinal fluid (FaSSIF) was determined at pH 6.5 after 4 h equilibration at rt. An amount of1 mL of FaSSIF buffer (3 mM sodium taurocholate, 0.75 mM lecithin in sodium phosphate buffer at pH 6.5) was added to manually weighed 1 mg of solid compound in a 2 mL HPLC autosampler vial. The resulting suspension was shaken at 900 rpm for 4 h at rt and then transferred to a Multiscreen HTS, 96-well solubility filter plate. The residual solid was removed by filtration. The supernatant solution was quantified by HPLC−UV using single-point calibration of a known concentration of the compound in DMSO. The dynamic range of the assay was 1−1000 μg/mL.

[12] = Property Forecast Index; assay type: physicochemical; settings: number of aromatic rings + ChromLogD at pH 7.4
[13] = system: HepG2 cells; experiment: general cytotoxicity assay in HepG2 cells; assay type: cell-based; settings: Homo sapiens, HepG2, 48 h, CellTiter-Glo
Procedure: This assay was previously described ([36]). Briefly, actively growing HepG2 cells were removed from a T-175 TC flask using 5 ml Eagle’s MEM (containing 10 % FBS, 1 % NEAA, 1 % penicillin/ streptomycin. Carbon source is D-glucose at 1 g/l) and dispersed in the medium by repeated pipetting. Seeding density was checked to ensure that new monolayers were not more than 50 % confluent at the time of harvesting. Cell suspension was added to 500 ml of the same medium at a final density of 1.2 x 10^5 cells/ml. This cell suspension was dispensed (25 μl, 3000 cells per well) into 384-well clear-bottom plates using a Multidrop Combi dispenser. Prior to addition of the cell suspension, the screening compounds (250 nl) were predispensed into the plates with an EchoH liquid handler. Plates were incubated for 48 h at 37°C, 5% CO2. After incubation, plates equilibrated at room temperature for 30 min before proceeding to develop the luminescent signal. The signal developer, CellTiter-Glo Reagent, was allowed to equilibrate at room temperature for 30 min and added to the plates ([…]) using a Multidrop Combi dispenser. Plates were left for 10 min at room temperature for stabilization and then read using a ViewLux.

[14] = system: intracellular T. cruzi Silvio X10/7 A1 in Vero cells; experiment: washout outgrowth assay; assay type: cell-based, Trypanosoma cruzi; settings: 8-days treatment, BNZ at 12.5× EC50 (Fig. S7)
Procedure: Washout outgrowth assay: Vero cells were infected overnight in T600 flasks at a multiplicity of infection (MOI) 5 with T. cruzi Silvio X10/7 A1 trypomastigotes, followed by washing of the Vero monolayer to remove free trypomastigotes. 24 hours later the monolayer was trypsinised, 5.3 x 10^6 Vero cells were plated in T75 tissue culture flasks (in 20 ml MEM-Glutamax (ThermoFisher), 1% Fetal Calf Serum (FCS)), and treatment was started. For ten-day treatments, medium with compounds was replaced after the initial 5 days. For 16 day treatments the compounds were replaced every four days. For compound washout, all medium was aspirated, and flasks were washed three times with 10 ml serum-free MEM medium followed by a final aspiration and addition of 20 ml MEM-Glutamax (ThermoFisher) supplemented with 1% FCS. The cultures were then maintained until trypomastigotes were detected by light microscopy. Medium was replaced twice weekly and prior to each medium replacement microscopic evaluation was carried out (five fields per flask) for up to 60 days post washout. Robustness of the data was confirmed by profiling multiple compounds from the pyrrolopyrimidine series in a single experiment (compounds 2,3 and 4 in Fig. 2 and Fig. S17) as well as comparing results from independent experiments (compound 2 in Fig. 2, Fig. S5 and Fig. S7).

[15] = intracellular amastigotes Silvio X10/7 A1, 96 h, ± SD, min. three experiments, read-out: Amastigotes pEC50 (converted)
[16] = read-out: Vero pEC50 (converted)
[17] = read-out: Trypomastigotes pEC50 (converted)

T. cruzi CYP51, sequence (Q7Z1V1 whole entry): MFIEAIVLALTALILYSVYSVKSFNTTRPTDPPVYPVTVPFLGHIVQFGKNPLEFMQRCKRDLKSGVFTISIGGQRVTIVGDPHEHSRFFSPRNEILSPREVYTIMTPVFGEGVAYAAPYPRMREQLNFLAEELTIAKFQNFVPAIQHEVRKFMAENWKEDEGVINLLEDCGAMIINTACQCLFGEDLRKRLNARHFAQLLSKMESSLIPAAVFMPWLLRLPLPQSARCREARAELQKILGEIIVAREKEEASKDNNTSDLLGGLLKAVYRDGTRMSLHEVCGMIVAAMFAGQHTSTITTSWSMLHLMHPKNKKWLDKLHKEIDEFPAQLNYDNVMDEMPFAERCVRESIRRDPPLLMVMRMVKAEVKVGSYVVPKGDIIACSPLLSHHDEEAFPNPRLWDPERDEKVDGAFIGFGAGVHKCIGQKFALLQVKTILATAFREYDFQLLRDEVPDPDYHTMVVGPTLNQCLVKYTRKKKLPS
T. cruzi complex III (epimastigote lysates), sequence (Q9T479 entry or part of it, one chain of several): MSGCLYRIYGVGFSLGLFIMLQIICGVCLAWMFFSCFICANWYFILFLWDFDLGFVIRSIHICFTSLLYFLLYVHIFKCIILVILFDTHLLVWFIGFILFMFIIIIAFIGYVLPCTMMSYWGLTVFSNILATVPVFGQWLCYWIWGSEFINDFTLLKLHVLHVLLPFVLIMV

SMILES: CC1CS(=O)(=O)CCN1/N=C/c1ccc([N+](=O)[O-])o1 (stereo not drawn) [NFX, nifurtimox]
discontinuation of treatment prior to completion due to adverse side-effects [1]: ≤ 43%

SMILES: COc1cc(F)ccc1-c1c(C)n(C)c2nc(N)nc(C)c12 [Compound 5, 5-(4-Fluoro-2-methoxyphenyl)-4,6,7-trimethyl-7H-pyrrolo[2,3-d]pyrimidin-2-amine]
IC50 [2]: 1 ± 0.2 nM
EC50 ([3]; read-out: EC50 F222L): 486 ± 18 nM
EC50 ([3]; read-out: EC50 G36C/L197F cytb line): 1.2 ± 0.1 nM
EC50 ([3]; read-out: EC50 G36C/L197I cytb line): 37 ± 2 nM
EC50 ([3]; read-out: EC50 L197F cytb line): 1.1 ± 0.1 nM
EC50 ([3]; read-out: EC50 L197I): 21 ± 0.5 nM
EC50 ([3]; read-out: EC50 compound 5-resistant clone RES1): 417 ± 11 nM
EC50 ([3]; read-out: EC50 compound 5-resistant clone RES2): 585 ± 30 nM
EC50 ([3]; read-out: EC50 compound 5-resistant clone RES3): 635 ± 33 nM
fold change from WT, L197I ([3]; compound 3-resistant line (L197I)): 10 fold
fold change from WT, F222L ([3]; compound 5-resistant line (F222L)): 224 fold
cross-resistance of G36C and L197I epimastigotes ([3]; versus wild-type): 9 fold
EC50 ([4]; read-out: EC50 wild-type): 2.4 ± 0.1 nM
EC50 ([4]; read-out: EC50 wild-type epimastigotes): 11.3 ± 0.5 nM
EC50 ([4]; Table 2, wild-type epimastigotes, read-out: EC50 WT): 2 ± 0.1 nM

solubility at 1 h [6]: 110 µg/mL (≈ 410 µM)
IC50 [7]: > 100 µM
inhibition of recombinant T. cruzi CYP51 ([7]; direct biochemical assay): did not inhibit
EC50 ([9]; read-out: Trypomastigotes EC50): 250 nM
EC50 [9, 17]: 251 nM
chromatographic logD [10]: 3.2
FaSSIF pH 6.5 [11]: 456 µg/mL
PFI [12]: 6.2
SMILES: COc1ccccc1-c1c(C)[nH]c2nc(N)nc(C)c12 [Compound 1, 5-(2-methoxyphenyl)-4,6-dimethyl-7H-pyrrolo[2,3-d]pyrimidin-2-amine]
EC50 [5, 15]: 316 nM
EC50 ([5]; read-out: Amastigotes EC50): 320 nM
EC50 ([8]; read-out: Vero EC50): > 50 µM
EC50 [8, 16]: > 31.6 µM
Vero pEC50 [8]: < 4.3
EC50 ([13]; read-out: HepG2 EC50): > 100 µM

solubility at 1 h [6]: 14 µg/mL (≈ 20 µM)
EC50 ([9]; read-out: Trypomastigotes EC50): > 50000 nM
EC50 [9, 17]: > 50100 nM
chromatographic logD [10]: 6.1
PFI [12]: 11.1
SMILES: CC[C@@H]([C@H](C)O)n1ncn(-c2ccc(N3CCN(c4ccc(OC[C@@H]5CO[C@@](Cn6cncn6)(c6ccc(F)cc6F)C5)cc4)CC3)cc2)c1=O [Posaconazole, reference compound]
washout outcome in combination with BNZ [14]: failed to eliminate all parasites
EC50 [5, 15]: 2.51 nM
EC50 ([5]; read-out: Amastigotes EC50): 3 nM
EC50 ([8]; read-out: Vero EC50): > 50 µM
EC50 [8, 16]: > 50.1 µM
EC50 ([13]; read-out: HepG2 EC50): > 100 µM
EC50 ([13]; read-out: HepG2 pEC50 (converted)): > 100 µM
